The target of the assay is human Factor XIIa (Homo sapiens (Human), UniProt P00748). The experiment in a line: Factor XIIa Assay. Conditions: purified human Factor XIIa 500 pM; substrate n-Acetyl-Lys-Pro-Arg-AFC 100 μM; pH 7.4; read-out: FXIIa IC50. It counts as biochemical. As for the experimental part: The effectiveness of a compound of the present invention as an inhibitor of Coagulation Factor XIIa can be determined using a relevant purified serine protease, and an appropriate synthetic substrate. The rate of hydrolysis of the chromogenic or fluorogenic substrate by the relevant serine protease was measured both in the absence and presence of compounds of the present invention. Assays were conducted at room temperature or at 37° C. […] A decrease in the rate of fluorescence change in the presence of inhibitor is indicative of enzyme inhibition. Such methods are known to one skilled in the art.
human Factor XIIa, sequence (P00748 373-615): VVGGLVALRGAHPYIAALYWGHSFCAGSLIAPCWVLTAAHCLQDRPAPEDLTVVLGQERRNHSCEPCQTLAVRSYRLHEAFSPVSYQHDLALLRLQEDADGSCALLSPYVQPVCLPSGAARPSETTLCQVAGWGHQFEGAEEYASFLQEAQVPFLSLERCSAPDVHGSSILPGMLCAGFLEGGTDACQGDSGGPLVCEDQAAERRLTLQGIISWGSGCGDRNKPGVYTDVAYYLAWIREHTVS
Factor XIIa activity determinations were made in 50 mM HEPES buffer containing 150 mM NaCl, 5 mM CaCl2, and 0.1% PEG 8000 (polyethylene glycol; JT Baker or Fisher Scientific) at pH 7.4. Determinations were made using purified human Factor XIIa at a final concentration of 500 pM (Sekisui Diagnostics) and the synthetic substrate, n-Acetyl-Lys-Pro-Arg-AFC, TFA salt (Sigma #C6608) at a concentration of 100 μM.
Times required to achieve equilibration between enzyme and inhibitor were determined in control experiments. Initial velocities of product formation in the absence (Vo) or presence of inhibitor (Vi) were measured. IC50 was determined as the concentration of I yielding Vi=Vo/2.
As usually defined, the IC50 is the concentration that inhibits the measured activity by half. In the case of `Cc1ccc(OC(=O)N2CCN(C(=O)[C@@H](CCCCN(C)C)N(C)C3CCCCC3)[C@H](C(=O)NCc3cccs3)C2)c(Cl)c1C` [Example 101, 2-chloro-3,4-dimethylphenyl (3S)-4-(N^2-cyclohexyl-N^2,N^6,N^6-trimethyl-D-lysyl)-3-[(thiophen-2-ylmethyl)carbamoyl]piperazine-1-carboxylate], the IC50 was determined as 0.1 nM.
Under `Cc1ccc(OC(=O)N2CCN(C(=O)[C@@H](CCCCNC(C)C)NC3CCCCC3)[C@H](C(=O)NCc3cccs3)C2)c(Cl)c1C` [Example 102, 2-chloro-3,4-dimethylphenyl (3S)-4-[N^2-cyclohexyl-N^6-(1-methylethyl)-D-lysyl]-3-[(thiophen-2-ylmethyl)carbamoyl]piperazine-1-carboxylate] stands 0.7 nM.
In the case of `Cc1ccc(OC(=O)N2CCN(C(=O)[C@@H](CCCCNC(C)C)NC(C)C)[C@H](C(=O)NCc3cccs3)C2)c(Cl)c1C` [Example 103, 2-chloro-3,4-dimethylphenyl (3S)-4-[N^2,N^6-bis(1-methylethyl)-D-lysyl]-3-[(thiophen-2-ylmethyl)carbamoyl]piperazine-1-carboxylate] it was 1.4 nM.
In the case of `Cc1ccc(OC(=O)N2CCN(C(=O)[C@@H](CCCCN3CCCCC3)NC3CCC4(CC3)CCN(Cc3ccccc3)C4)[C@H](C(=O)NCc3cccs3)C2)c(Cl)c1C` (stereo partly drawn) [Example 104, 2-chloro-3,4-dimethylphenyl (3S)-4-[N-(2-benzyl-2-azaspiro[4.5]dec-8-yl)-6-piperidin-1-yl-D-norleucyl]-3-[(thiophen-2-ylmethyl)carbamoyl]piperazine-1-carboxylate] it was 0.2 nM; in that of `Cc1ccc(OC(=O)N2CCN(C(=O)[C@@H](CCCCNC(C)C)NC3CCC4(CC3)CCN(Cc3ccccc3)C4)[C@H](C(=O)NCc3cccs3)C2)c(Cl)c1C` (stereo partly drawn) [Example 105, 2-chloro-3,4-dimethylphenyl (3S)-4-[N^2-(2-benzyl-2-azaspiro[4.5]dec-8-yl)-N^6-(1-methylethyl)-D-lysyl]-3-[(thiophen-2-ylmethyl)carbamoyl]piperazine-1-carboxylate], 0.5 nM.
Turning to `CC[C@@H](NC1CCCCC1)C(=O)N1CCN(C(=O)Oc2ccc(C)c(C)c2Cl)C[C@H]1C(=O)NCc1ccc(CN)c(OC)c1` [Example 106, 2-chloro-3,4-dimethylphenyl (3S)-3-{[4-(aminomethyl)-3-methoxybenzyl]carbamoyl}-4-[(2R)-2-(cyclohexylamino)butanoyl]piperazine-1-carboxylate], the IC50 turned out to be 6.2 nM.
In the case of `CC[C@@H](NC1CCC2(CC1)CCN(Cc1ccccc1)C2)C(=O)N1CCN(C(=O)Oc2ccc(C)c(C)c2Cl)C[C@H]1C(=O)NCc1ccc(CN)c(OC)c1` (stereo partly drawn) [Example 107, 2-chloro-3,4-dimethylphenyl (3S)-3-{[4-(aminomethyl)-3-methoxybenzyl]carbamoyl}-4-{(2R)-2-[(2-benzyl-2-azaspiro[4.5]dec-8-yl)amino]butanoyl}piperazine-1-carboxylate] it was 14 nM; in that of `Cc1ccc(OC(=O)N2CCN(C(=O)[C@@H](CCCCN(C)C)NC3CCC4(CC3)CCN(Cc3ccccc3)C4)[C@H](C(=O)NCc3cccs3)C2)c(Cl)c1C` (stereo partly drawn) [Example 108, 2-chloro-3,4-dimethylphenyl (3S)-4-[N^2-(2-benzyl-2-azaspiro[4.5]dec-8-yl)-N^6,N^6-dimethyl-D-lysyl]-3-[(thiophen-2-ylmethyl)carbamoyl]piperazine-1-carboxylate], 0.3 nM.
Under `Cc1ccc(OC(=O)N2CCN(C(=O)[C@@H](CCCCN3CCCC3)NC3CCC4(CC3)CCN(Cc3ccccc3)C4)[C@H](C(=O)NCc3cccs3)C2)c(Cl)c1C` (stereo partly drawn) [Example 109, 2-chloro-3,4-dimethylphenyl (3S)-4-[N-(2-benzyl-2-azaspiro[4.5]dec-8-yl)-6-pyrrolidin-1-yl-D-norleucyl]-3-[(thiophen-2-ylmethyl)carbamoyl]piperazine-1-carboxylate] stands 1 nM; under `Cc1ccc(OC(=O)N2CCN(C(=O)[C@@H](CCCCN3CCCC3C)NC3CCC4(CC3)CCN(Cc3ccccc3)C4)[C@H](C(=O)NCc3cccs3)C2)c(Cl)c1C` (stereo partly drawn) [Example 110, 2-chloro-3,4-dimethylphenyl (3S)-4-[N-(2-benzyl-2-azaspiro[4.5]dec-8-yl)-6-(2-methylpyrrolidin-1-yl)-D-norleucyl]-3-[(thiophen-2-ylmethyl)carbamoyl]piperazine-1-carboxylate], 0.3 nM.
In the case of `Cc1ccc(OC(=O)N2CCN(C(=O)[C@H](N)CCCCN3CCCCC3)[C@H](C(=O)NCc3cccs3)C2)c(Cl)c1C` [Example 111, 2-chloro-3,4-dimethylphenyl (3S)-4-(6-piperidin-1-yl-D-norleucyl)-3-[(thiophen-2-ylmethyl)carbamoyl]piperazine-1-carboxylate] it was 5 nM; in that of `CS(=O)(=O)NCCCC[C@@H](NC1CCCC1)C(=O)N1CCN(C(=O)Oc2ccc3ccccc3c2Cl)C[C@H]1C(=O)NCc1cccs1` [Example 113, 1-chloronaphthalen-2-yl (3S)-4-[N^2-cyclopentyl-N~6~-(methylsulfonyl)-D-lysyl]-3-[(thiophen-2-ylmethyl)carbamoyl]piperazine-1-carboxylate], 8.4 nM; in that of `C[C@H]1N=C(N2CCN(C(=O)[C@@H](CC3CCCCC3)NC3CCCCC3)[C@H](C(=O)NCc3cccs3)C2)O[C@H]1c1ccccc1` [Example 114, (2S)-1-(N,3-dicyclohexyl-D-alanyl)-4-[(4R,5S)-4-methyl-5-phenyl-4,5-dihydro-1,3-oxazol-2-yl]-N-(thiophen-2-ylmethyl)piperazine-2-carboxamide], 17.1 nM.
Turning to `CC(C)N[C@H](CCCCN1CCCCC1)C(=O)N1CCN(C2=N[C@@H](C)[C@H](c3ccccc3)O2)C[C@H]1C(=O)NCc1cccs1` [Example 115, (2S)-1-[N-(1-methylethyl)-6-piperidin-1-yl-D-norleucyl]-4-[(4S,5S)-4-methyl-5-phenyl-4,5-dihydro-1,3-oxazol-2-yl]-N-(thiophen-2-ylmethyl)piperazine-2-carboxamide], the IC50 was 3.8 nM.
In the case of `C[C@@H]1N=C(N2CCN(C(=O)[C@@H](CCCCNS(C)(=O)=O)NC3CCCCC3)[C@H](C(=O)NCc3cccs3)C2)O[C@H]1c1cccc(C#N)c1` [Example 116, (2S)-4-[(4S,5S)-5-(3-cyanophenyl)-4-methyl-4,5-dihydro-1,3-oxazol-2-yl]-1-[N^2-cyclohexyl-N^6-(methylsulfonyl)-D-lysyl]-N-(thiophen-2-ylmethyl)piperazine-2-carboxamide] it was 17.8 nM; in that of `C[C@@H]1N=C(N2CCN(C(=O)[C@@H](CCCCNS(C)(=O)=O)NC3CCCCC3)[C@H](C(=O)NCc3cccs3)C2)O[C@H]1c1cccc(CN)c1` [Example 117, (2S)-4-{(4S,5S)-5-[3-(aminomethyl)phenyl]-4-methyl-4,5-dihydro-1,3-oxazol-2-yl}-1-[N^2-cyclohexyl-N^6-(methylsulfonyl)-D-lysyl]-N-(thiophen-2-ylmethyl)piperazine-2-carboxamide], 5.2 nM.
Under `COc1cc(CNC(=O)[C@@H]2CN(C3=N[C@@H](C)[C@H](c4ccccc4)O3)CCN2C(=O)[C@@H](CCCCN2CCCCC2)NC(C)C)ccc1CN` [Example 118, (2S)-N-[4-(aminomethyl)-3-methoxybenzyl]-1-[N-(1-methylethyl)-6-piperidin-1-yl-D-norleucyl]-4-[(4S,5S)-4-methyl-5-phenyl-4,5-dihydro-1,3-oxazol-2-yl]piperazine-2-carboxamide] stands 8.1 nM; under `C[C@@H]1N=C(N2CCN(C(=O)[C@H](NC3CCC(C(N)=O)CC3)[C@H]3CC[C@H](N4CCCCC4)CC3)[C@H](C(=O)NCc3cccs3)C2)O[C@H]1c1ccccc1` (stereo partly drawn) [Example 119, (2S)-1-[(2R)-2-[(4-carbamoylcyclohexyl)amino]-2-(trans-4-piperidin-1-ylcyclohexyl)acetyl]-4-[(4S,5S)-4-methyl-5-phenyl-4,5-dihydro-1,3-oxazol-2-yl]-N-(thiophen-2-ylmethyl)piperazine-2-carboxamide], 1.5 nM.
In the case of `C[C@H]1N=C(N2CCN(C(=O)[C@@H](CCCCNS(C)(=O)=O)NC3CCCCC3)[C@H](C(=O)NCc3cccs3)C2)O[C@H]1c1ccccc1` [Example 122, (2S)-1-[N^2-cyclohexyl-N^6-(methylsulfonyl)-D-lysyl]-4-[(4R,5S)-4-methyl-5-phenyl-4,5-dihydro-1,3-oxazol-2-yl]-N-(thiophen-2-ylmethyl)piperazine-2-carboxamide] it was 13.5 nM; in that of `C[C@@H]1N=C(N2CCN(C(=O)[C@@H](CCCCNS(C)(=O)=O)NC3CCCCC3)[C@H](C(=O)NCc3cccs3)C2)O[C@H]1c1ccccc1` [Example 123, (2S)-1-[N^2-cyclohexyl-N^6-(methylsulfonyl)-D-lysyl]-4-[(4S,5S)-4-methyl-5-phenyl-4,5-dihydro-1,3-oxazol-2-yl]-N-(thiophen-2-ylmethyl)piperazine-2-carboxamide], 7 nM; in that of `C[C@@H]1N=C(N2CCN(C(=O)[C@@H](CCCCNS(C)(=O)=O)NC3CCCCC3)[C@H](C(=O)NCc3cccs3)C2)O[C@H]1c1cccc(Br)c1` [Example 124, (2S)-4-[(4S,5S)-5-(3-bromophenyl)-4-methyl-4,5-dihydro-1,3-oxazol-2-yl]-1-[N^2-cyclohexyl-N^6-(methylsulfonyl)-D-lysyl]-N-(thiophen-2-ylmethyl)piperazine-2-carboxamide], 24.6 nM.
